Reference: US20060051321A1, “Biological compositions and methods for treatment of testicular cancer” (Ultra Biotech Limited, priority 2003, published 2006)

What was measured:
Type in all cases: in vivo
[1] = tested on: testicular cancer cell line HTB-104; assay: Tumor growth in kun ming mouse model of human testicular cancer (Example 6); conditions: mice injected s.c. with HTB-104 cells; 30 consecutive days of treatment; sacrificed on 31st day from tumor inoculation
Text: The following example illustrates the benefit of a biological composition of the invention in a kun ming mouse model of human testicular cancer. The growth of tumors in the mice was studied.
Numerous animal studies have reported the use of kun ming mouse models in the study of human testicular cancer. There is almost a 100% success rate for transplanting testicular tumor HTB-104 cells in mice. The testicular tumor cell line HTB-104 can be ordered from the American Type Culture Collection.
(§1) The biological composition comprising 10^8 cells per ml of activated and conditioned yeast cells of the strain Saccharomyces cerevisiae Hansen strain AS2.182 was prepared by the methods described in Section 5.1 and subsections therein.
The animals used for the experiments were kun ming mouse (obtainable from the Chinese Academy of Military Medical Sciences, Beijing, China). Only males 20 to 22 gram in body weight, 6 to […] old were used. […]
The mice received the biological compositions, untreated yeast cells, BLM or saline on the same day as the tumor cells were transplanted. […] On the 31st day from tumor inoculation, the mice were sacrificed and the weight of the mice and the weight of the tumor were determined by standard techniques.

[2] = tested on: testicular cancer cell line HTB-104; assay: Survival in kun ming mouse model of human testicular cancer (Example 7); conditions: for Number of live animals remaining in the groups after 30 days of treatment: 30 mice per group
Procedure: The following example illustrates the benefit of a biological composition of the invention in a kun ming mouse model of human testicular cancer. The survival time of rats after tumor injection and treatment was studied.
The biological composition comprising 10^8 cells per ml of activated and conditioned yeast cells of the strain Saccharomyces cerevisiae Hansen strain AS2. 182 was prepared by the methods described in Section 5.1 and subsections therein.
The animals were prepared in a similar manner as described in Section 6.1.
After injection with HTB-104 cells, the mice were divided into 4 experimental groups of ten mice per group and one control group. The four experimental groups were triplicated (i.e., using a total of 120 mice in the experimental groups). In group 2AY, the mice received 0.5 ml of the biological composition once per day. In group 2NY, the mice received 0.5 ml of the untreated yeast cells once per day. In group 2BLM, the mice were injected subcutaneously with 0.8 mg of bleomycin (BLM) per kg body weight per day. In group 2CK1, the mice received 0.5 ml of physiological saline once per day.
The mice received the biological compositions, untreated yeast cells, BLM or saline on the same day as the tumor cells were transplanted. The mice in group 2CK2 also started receiving saline on the same day as the other four groups. The biological compositions, untreated yeast cells or saline were administered orally by a feeding tube and the BLM by subcutaneous injection for 30 consecutive days. The mice were observed over 6 months from the day of tumor inoculation and survival was recorded. The weight of the mice and the weight of the tumor were determined by standard techniques.

[3] = tested on: testicular cancer cell line CRL-1973; assay: Survival in Wistar rat model of human testicular cancer (Example 9); conditions: for Number of live animals remaining in the groups after 30 days of treatment: 30 rats per group
Procedure: The survival time of mice after tumor injection and treatment was studied.
as §1
The animals were prepared in a similar manner as described in Section 8.1.
After injection with CRL-1973 cells, the rats were divided into 4 experimental groups of ten rats per group and one control group. The four experimental groups were triplicated (ie., using a total of 120 rats in the experimental groups). In group 2AY, the rats received 1.2 ml of the biological composition once per day. In group 2NY, the rats received 1.2 ml of the untreated yeast cells once per day. […] In group 2CK1, the rats received 1.2 ml of physiological saline once per day.
The rats received the biological compositions, untreated yeast cells, VLB or saline on the same day as the tumor cells were transplanted. The rats in group 2CK2 also started receiving saline on the same day as the other four groups. The biological compositions, untreated yeast cells and saline were administered orally by a feeding tube and the VLB by intravenous injection for 30 consecutive days. The mice were observed over 6 months from the day of tumor inoculation and survival was recorded. The weight of the mice and the weight of the tumor were determined by standard techniques.

[4] = tested on: testicular cancer cell line CRL-1973; assay: Tumor growth in Wistar rat model of human testicular cancer (Example 8); conditions: rats injected s.c. with CRL-1973 cells; 30 consecutive days of treatment; sacrificed on 31st day from tumor inoculation
Text: The following example illustrates the benefit of a biological composition of the invention in a Wistar rat model of human testicular cancer. The growth of the tumor in the rats was studied.
Numerous animal studies have reported the use of Wistar rat models in the study of human testicular cancer. There is very high success rate for transplanting testicular tumor CRL-1973 cells in rats. The testicular tumor cell line CRL-1973 can be ordered from the American Type Culture Collection.
as §1
The animals used for the experiments were male Wistar rats (obtainable from the Chinese Academy of Military Medical Sciences, Beijing, China). About 2×10^7 viable tumor cells of the testicular cancer cell line CRL-1973 (obtainable from the Cancer Institute, Chinese Academy of Medical Sciences, Beijing, China) in about 0.2 ml culture suspension was injected subcutaneously into the animals. […]
The rats received the biological compositions, untreated yeast cells, VLB or saline on the same day as the tumor cells were transplanted. […] The weight of the rats and the weight of the tumor were determined by standard techniques.

[5] = 0 month after cessation of treatment
[6] = 1 month after cessation of treatment
[7] = 2 months after cessation of treatment
[8] = 3 months after cessation of treatment
[9] = 4 months after cessation of treatment
[10] = 5 months after cessation of treatment
[11] = 6 months after cessation of treatment

Compound	mean weight of tumor nodules and standard deviation [1] [mg]	Number of live animals remaining in the groups after 30 days of treatment [2, 5]	Number of live animals remaining in the groups after 30 days of treatment [2, 6]	Number of live animals remaining in the groups after 30 days of treatment [2, 7]	Number of live animals remaining in the groups after 30 days of treatment [2, 8]	Number of live animals remaining in the groups after 30 days of treatment [2, 9]	Number of live animals remaining in the groups after 30 days of treatment [2, 10]	Number of live animals remaining in the groups after 30 days of treatment [2, 11]	death of all animals, time from injection of tumor cells ([2]; mice bearing HTB-104 cells, 30 days of treatment)	mean weight of tumor nodules and standard deviation ([2]; mice that survived, observed over 6 months from tumor inoculation)	Number of live animals remaining in the groups after 30 days of treatment [3, 5]	Number of live animals remaining in the groups after 30 days of treatment [3, 6]	Number of live animals remaining in the groups after 30 days of treatment [3, 7]	Number of live animals remaining in the groups after 30 days of treatment [3, 8]	Number of live animals remaining in the groups after 30 days of treatment [3, 9]	Number of live animals remaining in the groups after 30 days of treatment [3, 10]	Number of live animals remaining in the groups after 30 days of treatment [3, 11]	death of all animals, time from injection of tumor cells ([3]; rats bearing CRL-1973 cells, 30 days of treatment)	mean weight of tumor nodules and standard deviation ([3]; rats that survived, observed over 6 months from tumor inoculation)	mean weight of tumor nodules and standard deviation [4] [g]
bleomycin [BLM]	1.13 ± 0.65	30	27	16	0	0	0	0	all died after three months	all animals dead	–	–	–	–	–	–	–	–	–	–
CC[C@]1(O)C[C@@H]2CN(CCc3c([nH]c4ccccc34)[C@@](C(=O)OC)(c3cc4c(cc3OC)N(C)[C@H]3[C@@](O)(C(=O)OC)[C@H](OC(C)=O)[C@]5(CC)C=CCN6CC[C@]43[C@@H]65)C2)C1 [VLB, vinblastine]	–	–	–	–	–	–	–	–	–	–	30	30	22	9	1	0	0	all died after five months	all animals dead	2.67 ± 2.65
